Like-named read-outs stand apart in the source and are kept apart here.
How the values were obtained:
[1] = system: HCC1954 (human breast carcinoma) xenograft; experiment: In vivo anti-tumor efficacy in HCC1954 xenograft, SCID-bg mice; conditions: 25 mg/kg iv qod × 5; day 28; HCC1954 study
Procedure: HCC1954 (human breast carcinoma) cells were obtained from American Type Culture Collection (Manassas, VA) and cultured in RPMI+10% FBS, 37° C., 5% CO2 until 80% confluent. Cells were harvested by trypsinization and suspended in PBS at 1×10^8 cells/mL.
Female, SCID-beige mice, 5-8 weeks old, were obtained from Charles River Laboratories. HCC1954 cells (human, breast carcinoma, ATCC, #CRL-2338) were mixed 1:1 with Matrigel (BD Biosciences, Bedford MA) and injected subcutaneously into the mice. When tumors reached an average size of 100-200 mm^3, mice were sorted into groups of 9-10 mice each. Caliper measurements were taken twice weekly until the end of the study. To estimate tumor volume, two orthogonal diameters were measured with calipers and the values entered into the formula, (L×W×W)/2=V, (where W=the shortest diameter, L=the longest diameter and V-volume), to obtain an estimated volume. The tumor volume was converted to tumor weight in the Excel data file by assuming 1 mm^3=1 mg. Endpoint was based on a study design of tumor growth inhibition (TGI). When the mean tumor volume of the control group reached approx. 1,000 mm^3 all mice were euthanized or day 28, whichever came first. […]
HCC1954 cells were utilized for this study with 10 cells/mouse in Matrigel, SC in the right flank. […] Tumor volume was monitored until the endpoint was reached (1,000 mm^3 or 60 days). […]

BT474 = experiment: In vitro inhibition of proliferation assay (WST-8), BT474; format: cell-based
Procedure: (§1) At day 1, the cells were seeded. The media was aspirated and the T-225 culture flasks of cells was rinsed with 30 mL PBS−/. PBS was aspirated and 6 mL of 0.25% Trypsin-EDTA was added to each flask. The flasks were incubated at 37° C., 5% CO2 for 2-5 minutes. Adherent cells were dislodged by hitting flask and trypsin was neutralized by adding 14 mL culture medium. The cell suspension was mixed and transferred to a 50 mL conical tube. The cells were spun down at 1200 rpm, 5 min, room temperature. The resultant cell pellet was resuspended in 12 mL of culture medium. The cells were counted in a hemacytometer. Cells were seeded at appropriate cell densities into 96-well flat-bottom, clear plates and incubated overnight at 37° C., 5% CO2 to allow cells to attach. Plating volume was 80 uL/well. 80 uL/well of culture medium was utilized as the “no cell” control.
(§2) Cell plating density examples include: • BT474 (high Her2)—20,000 cells/well in F12k/DMEM (50/50), 10% FBS, P/S • MDA-MB-468 (Her2 negative)-6,000 cells/well in F12k/DMEM (50/50), 10% FBS, P/S • HCC1954—5,000 cells/well in RPMI 1640, 10% FBS, P/S • SKOV-3—6,000 cells/well in RPMI 1640, 10% FBS, P/S • HT29—20,000 cells/well in McCoy's 5A, 10% FBS, P/S
(§3) At day 2, the test samples were added to the cells. The test samples were diluted in culture medium to a 9× stock concentration in Column 2 of a round-bottom 96-well plate. 3× serial dilutions were made from Column 2 to Column 11 with a multi-channel pipettor. 10 uL/well of the above samples was added in duplicate to the appropriate wells of the seeded plate. The total volume in the wells was about 90 uL/well. 10 uL/well of culture medium was added to avoid edge effects for sample wells. Media Control wells were included in the inner wells where no sample was added (just 10 uL/well of culture medium) to be used in proliferation calculations. The plates were incubated at 37° C., 5% CO2 for 72 hrs.
(§4) At day 5, proliferation readout occurred. […] The plates were measured for absorbance at OD 450 nm. […]

HCC1954 = experiment: In vitro inhibition of proliferation assay (WST-8), HCC1954; format: cell-based, human; conditions: read-out: IC50 Values [nM] after 72 hr drug treatment
Procedure: as §1, §2
(§5) At day 2, the test samples were added to the cells. […]
as §4

LS513 = experiment: In vitro inhibition of proliferation assay (WST-8), LS513; format: cell-based; conditions: Data Set I, experiment Sept. 4, 2010, read-out: IC50 Values [nM] after 72 hr drug treatment
Procedure: as §1
(§6) At day 2, the test samples were added to the cells. The test samples were diluted in culture medium to a 9× stock concentration in Column 2 of a round-bottom 96-well plate. 3× serial dilutions were made from Column 2 to Column 11 with a multi-channel pipettor. 10 uL/well of the above samples was added in duplicate to the appropriate wells of the seeded plate. The total volume in the wells was about 90 uL/well. […]
as §4

NCI-N87 = experiment: In vitro inhibition of proliferation assay (WST-8), NCI-N87; format: cell-based; conditions: Data Set I, experiment Sept. 4, 2010, read-out: IC50 Values [nM] after 72 hr drug treatment
Procedure: as §1, §6, §4

SKOV-3 = experiment: In vitro inhibition of proliferation assay (WST-8), SKOV-3; format: cell-based
Procedure: as §1, §2, §3, §4

ZR-75-30 = experiment: In vitro inhibition of proliferation assay (WST-8), ZR-75-30; format: cell-based; conditions: Data Set I, experiment Sept. 4, 2010, read-out: IC50 Values [nM] after 72 hr drug treatment
Procedure: as §1, §6, §4

MDA-MB-175 = experiment: In vitro inhibition of proliferation assay (WST-8), MDA-MB-175; format: cell-based; conditions: Data Set I, experiment Sept. 13, 2010
Procedure: as §1, §6, §4

HT29 = experiment: In vitro inhibition of proliferation assay (WST-8), HT29; format: cell-based; conditions: Data Set II, experiment Sept. 24, 2010, read-out: IC50 Values [nM] after 72 hr drug treatment
Procedure: as §1, §2, §5, §4

MDA-MB-468 = experiment: In vitro inhibition of proliferation assay (WST-8), MDA-MB-468; format: cell-based; conditions: Data Set II, experiment Oct. 8, 2010, read-out: IC50 Values [nM] after 72 hr drug treatment
Procedure: as §1, §2, §5, §4

[2] = Data Set I, experiment Sept. 4, 2010, read-out: IC50 Values [nM] after 72 hr drug treatment
[3] = Data Set I, experiment Sept. 13, 2010, read-out: IC50 Values [nM] after 72 hr drug treatment

Row | Compound | Median Tumor Volume (mm3) [1] | T/C (Treated/Control) [1] | IC50 (BT474; [2]) | IC50 (BT474; [3]) | IC50 (BT474; Data Set II, experiment Sept. 24, 2010, read-out: IC50 Values [nM] after 72 hr drug treatment) | IC50 (HCC1954; HCC1954, Data Set I, experiment Sept. 4, 2010) | IC50 (HCC1954; HCCI954, Data Set II, experiment Oct. 8, 2010) | IC50 (LS513) | IC50 (NCI-N87) | IC50 (SKOV-3; [2]) | IC50 (SKOV-3; [3]) | IC50 (SKOV-3; Data Set II, experiment Oct. 8, 2010, read-out: IC50 Values [nM] after 72 hr drug treatment) | IC50 (ZR-75-30) | IC50 Values [nM] after 72 hr drug treatment (MDA-MB-175) | IC50 (HT29) | IC50 (MDA-MB-468)
1 | CC(=O)O[C@H]1C(=O)[C@@]2(C)[C@H]([C@H](OC(=O)c3ccccc3)[C@]3(O)C[C@H](OC(=O)[C@H](O)[C@@H](NC(=O)c4ccccc4)c4ccccc4)C(C)=C1C3(C)C)[C@]1(OC(C)=O)CO[C@@H]1C[C@@H]2O [paclitaxel] | 18 mm3 | 0.037 |  |  |  |  |  |  |  |  |  |  |  |  |  | 
2 | Dolastatin |  |  | 0.1 nM | 0.1 nM | 2.5 nM | 0.06 nM | 0.04 nM | 0.2 nM | > 30 nM | 0.2 nM | 0.1 nM | 0.2 nM | > 30 nM | no fit | 4 nM | < 0.01 nM

Source: US12622944B2, “Compositions containing, methods involving, and uses of non-natural amino acid linked dolastatin derivatives” (priority 2011, dated 2026)
